The assay deals with CDK12 complexed with Cyclin K (Homo sapiens (Human), UniProt Q9NYV4). Put plainly: CDK enzymatic assay (HTRF, LANCE Ultra kinase assay). The format is biochemical. The conditions noted are these: 60 minutes pre-incubation, 1 mM ATP. The protocol: The following activity of the CDK enzymes in complex with their respective cyclins we assayed: CDK1 complexed with Cyclin B1; CDK2 complexed with Cyclin E1; CDK4 complexed with Cyclin D1; CDK6 complexed with Cyclin D1; CDK6 complexed with Cyclin D3; CDK9 complexed with Cyclin T1; CDK7 complexed with Cyclin H/MAT1; CDK2 complexed with Cyclin A2; CDK5 complexed with p35; CDK12 complexed with Cyclin K; CDK13 complexed with Cyclin K. These in vitro enzyme activity are assayed using homogeneous time-resolved energy transfer (HTRF), which measures phosphorylation of a peptide substrate. The LANCE® Ultra kinase assay (PerkinElmer) uses a ULight™-labeled EIF4E-binding protein 1 (THR37/46) peptide (DYSTTPGGTLFSTTPGTRI) (SEQ ID NO: 1) substrate and a Europium-labeled anti-phospho-4E-BP1 antibody (CDK2, CDK1, CDK4, CDK6, CDK9, CDK12, CDK13) or ULight™-labeled Myelin Basic Protein peptide (VTPRTPPP) (SEQ ID NO: 2) substrate and a Europium-labeled anti-phospho-MBP antibody (CDK7). Each CDK enzyme activity assays utilized human CDK co-expressed as N-terminal GST-tagged protein with its full length cyclin partner using a baculovirus expression system.
Sequence of CDK12 complexed with Cyclin K (Q9NYV4 whole entry): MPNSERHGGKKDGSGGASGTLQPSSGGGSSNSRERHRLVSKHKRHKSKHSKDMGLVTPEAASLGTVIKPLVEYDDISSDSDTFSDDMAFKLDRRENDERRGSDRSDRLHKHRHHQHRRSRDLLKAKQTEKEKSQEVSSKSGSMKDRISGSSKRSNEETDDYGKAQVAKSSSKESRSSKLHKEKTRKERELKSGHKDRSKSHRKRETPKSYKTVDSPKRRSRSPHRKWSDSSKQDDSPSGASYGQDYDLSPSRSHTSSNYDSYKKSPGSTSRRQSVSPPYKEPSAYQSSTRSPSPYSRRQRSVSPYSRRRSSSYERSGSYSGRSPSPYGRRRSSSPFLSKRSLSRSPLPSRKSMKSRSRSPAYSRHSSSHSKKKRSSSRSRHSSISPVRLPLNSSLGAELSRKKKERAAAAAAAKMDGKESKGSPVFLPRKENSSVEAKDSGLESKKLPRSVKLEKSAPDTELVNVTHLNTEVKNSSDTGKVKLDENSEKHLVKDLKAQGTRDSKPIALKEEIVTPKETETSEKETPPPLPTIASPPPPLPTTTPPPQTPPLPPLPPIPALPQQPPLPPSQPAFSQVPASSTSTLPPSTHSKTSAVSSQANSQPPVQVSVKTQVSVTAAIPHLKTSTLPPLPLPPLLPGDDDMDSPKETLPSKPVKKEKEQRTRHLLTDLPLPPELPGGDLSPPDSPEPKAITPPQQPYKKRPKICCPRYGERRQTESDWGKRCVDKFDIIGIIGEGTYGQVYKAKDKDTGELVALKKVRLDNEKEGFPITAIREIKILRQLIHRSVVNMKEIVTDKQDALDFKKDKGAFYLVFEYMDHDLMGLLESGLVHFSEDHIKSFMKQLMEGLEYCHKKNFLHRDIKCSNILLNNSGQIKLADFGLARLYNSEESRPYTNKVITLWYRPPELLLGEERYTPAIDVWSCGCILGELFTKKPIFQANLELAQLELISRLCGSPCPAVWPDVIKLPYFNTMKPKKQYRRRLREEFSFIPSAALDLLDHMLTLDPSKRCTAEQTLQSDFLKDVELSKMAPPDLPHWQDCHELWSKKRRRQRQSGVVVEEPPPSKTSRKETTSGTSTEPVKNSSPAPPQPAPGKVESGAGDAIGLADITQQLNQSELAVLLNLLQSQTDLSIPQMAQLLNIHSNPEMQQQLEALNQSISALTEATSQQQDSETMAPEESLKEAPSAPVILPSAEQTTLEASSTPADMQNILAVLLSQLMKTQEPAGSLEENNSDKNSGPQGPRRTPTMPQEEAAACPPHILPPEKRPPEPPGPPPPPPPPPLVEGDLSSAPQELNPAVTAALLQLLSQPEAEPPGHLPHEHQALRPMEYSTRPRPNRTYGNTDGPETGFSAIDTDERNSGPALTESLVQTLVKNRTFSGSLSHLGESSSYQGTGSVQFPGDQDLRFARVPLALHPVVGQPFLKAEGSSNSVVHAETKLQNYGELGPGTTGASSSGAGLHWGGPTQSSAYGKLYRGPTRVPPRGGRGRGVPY
Sequence of CDK12 complexed with Cyclin K (O75909 whole entry partner): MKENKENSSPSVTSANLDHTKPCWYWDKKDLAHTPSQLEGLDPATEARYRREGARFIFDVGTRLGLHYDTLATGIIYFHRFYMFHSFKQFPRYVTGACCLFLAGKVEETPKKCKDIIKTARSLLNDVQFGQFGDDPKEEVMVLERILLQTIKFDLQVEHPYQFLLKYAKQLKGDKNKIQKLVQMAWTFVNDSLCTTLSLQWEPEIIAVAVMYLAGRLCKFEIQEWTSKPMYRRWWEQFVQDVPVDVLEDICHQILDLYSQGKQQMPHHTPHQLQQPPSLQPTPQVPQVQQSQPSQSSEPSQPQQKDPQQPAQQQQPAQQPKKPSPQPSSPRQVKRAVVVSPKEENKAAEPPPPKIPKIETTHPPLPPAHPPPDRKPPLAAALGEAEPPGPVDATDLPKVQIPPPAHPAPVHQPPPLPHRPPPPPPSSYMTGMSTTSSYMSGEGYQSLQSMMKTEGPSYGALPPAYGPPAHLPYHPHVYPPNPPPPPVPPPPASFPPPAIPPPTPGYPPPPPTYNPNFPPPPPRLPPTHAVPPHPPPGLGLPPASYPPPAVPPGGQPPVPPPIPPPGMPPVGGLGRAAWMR
Enzyme was pre-incubated with compounds for 30 minutes (CDK1,2,4,6,9) or 60 minutes (CDK7, CDK12, CDK13) prior to addition of ATP and Ulight-peptide (1 mM and 50 nM final, respectively), in assay buffer containing 50 mM HEPES pH 7.5, 1 mM EGTA, 10 mM MgCl2, 2 mM DTT, 0.05 mg/mL BSA, and 0.01% Tween 20.
The reaction was then incubated for 60-90 minutes at room temperature. The reactions were stopped by the addition of EDTA and Europium labeled antibody, for a final concentration of 15 mM and 1.0-1.5 nM, respectively. HTRF signals were read after 15-120 minutes. A ratio of fluorescence transferred to the labeled substrate (665 nm) relative to fluorescence of the Europium donor (620 nm) represents the extent of phosphorylation. Ratios for treated wells were normalized to DMSO only (100% activity) and no enzyme (0% activity) controls. Normalized data was analyzed using a three or four parameter dose response curve to determine IC50 for each compound and are shown in Table A. Control reference inhibitors were included on each plate.
For orientation: Time-resolved FRET reads energy transfer from a long-lived donor to a nearby acceptor.
As a reminder, the IC50 is the concentration needed to halve the response being measured. Consider `N#Cc1cc(C(F)(F)F)cc2ncn([C@H]3CCC[C@@H](Nc4ncc(C(F)(F)F)c(-c5cnn(CC(F)F)c5)n4)C3)c12` [Example 51, 1-((1S,3R)-3-((4-(1-(2,2-Difluoroethyl)-1H-pyrazol-4-yl)-5-(trifluoromethyl)pyrimidin-2-yl)amino)cyclohexyl)-5-(trifluoromethyl)-1H-benzo[d]imidazole-7-carbonitrile], for which the IC50 lay in the range of 50 to 500 nM.

On to `N#Cc1cncc2ncn([C@H]3CCC[C@@H](Nc4ncc(C(F)(F)F)c(-c5cnn(CC(F)F)c5)n4)C3)c12` [Example 52, 1-((1S,3R)-3-((4-(1-(2,2-Difluoroethyl)-1H-pyrazol-4-yl)-5-(trifluoromethyl)pyrimidin-2-yl)amino)cyclohexyl)-1H-imidazo[4,5-c]pyridine-7-carbonitrile], for which the IC50 is less than 50 nM.

`N#Cc1cc2ncn([C@H]3CCC[C@@H](Nc4ncc(C#N)c(-c5cnn(CC(F)F)c5)n4)C3)c2[n+]([O-])c1` [Example 53, 6-Cyano-3-((1S,3R)-3-((5-cyano-4-(1-(2,2-difluoroethyl)-1H-pyrazol-4-yl)pyrimidin-2-yl)amino)cyclohexyl)-3H-imidazo[4,5-b]pyridine 4-oxide] yielded an IC50 of less than 50 nM.

`Cc1cc(F)cc2ncn([C@H]3CCC[C@@H](Nc4ncc(C#N)c(-c5cnn(CC(F)F)c5)n4)C3)c12` [Example 54, 4-(1-(2,2-Difluoroethyl)-1H-pyrazol-4-yl)-2-(((1R,3S)-3-(5-fluoro-7-methyl-1H-benzo[d]imidazol-1-yl)cyclohexyl)amino)pyrimidine-5-carbonitrile] returned an IC50 of less than 50 nM.

With `Cc1cc(C#N)cc2ncn([C@H]3CCC[C@@H](Nc4ncc(C#N)c(-c5cnn(CC(F)F)c5)n4)C3)c12` [Example 55, 1-((1S,3R)-3-((5-Cyano-4-(1-(2,2-difluoroethyl)-1H-pyrazol-4-yl)pyrimidin-2-yl)amino)cyclohexyl)-7-methyl-1H-benzo[d]imidazole-5-carbonitrile], the IC50 was less than 50 nM.

In turn, `Cn1cc(-c2cnc(N[C@@H]3CCC[C@H](n4cnc5cc(C#N)cnc54)C3)nc2-c2cnn(CC(F)F)c2)cn1` [Example 56, 3-((1S,3R)-3-((4-(1-(2,2-Difluoroethyl)-1H-pyrazol-4-yl)-5-(1-methyl-1H-pyrazol-4-yl)pyrimidin-2-yl)amino)cyclohexyl)-3H-imidazo[4,5-b]pyridine-6-caronitrile] yielded an IC50 of more than 500 nM.

In turn, `N#Cc1cnc2c(c1)ncn2[C@H]1CCC[C@@H](Nc2ncc(-c3cn[nH]c3)c(-c3cnn(CC(F)F)c3)n2)C1` [Example 57, 3-((1S,3R)-3-((4-(1-(2,2-Difluoroethyl)-1H-pyrazol-4-yl)-5-(1H-pyrazol-4-yl)pyrimidin-2-yl)amino)cyclohexyl)-3H-imidazo[4,5-b]pyridine-6-carbonitrile] showed an IC50 of 50 to 500 nM.

The compound `CC(C)(O)Cn1cc(-c2nc(N[C@@H]3CCC[C@H](n4cnc5cc(C#N)cnc54)C3)ncc2C#N)cn1` [Example 58, 3-((1S,3R)-3-((5-Cyano-4-(1-(2-hydroxy-2-methylpropyl)-1H-pyrazol-4-yl)pyrimidin-2-yl)amino)cyclohexyl)-3H-imidazo[4,5-b]pyridine-6-carbonitrile] had an IC50 of less than 50 nM.

`N#Cc1cnc2c(c1)ncn2[C@H]1CCC[C@@H](Nc2ncc(C#N)c(-c3cnn(C4CNC4)c3)n2)C1` [Example 59, 3-((1S,3R)-3-((4-(1-(Azetidin-3-yl)-1H-pyrazol-4-yl)-5-cyanopyrimidin-2-yl)amino)cyclohexyl)-3H-imidazo[4,5-b]pyridine-6-carbonitrile]: the IC50 was less than 50 nM.

`N#Cc1cnc2c(c1)ncn2[C@H]1CCC[C@@H](Nc2ncc(C#N)c(-c3cnn(CCN4CCOCC4)c3)n2)C1` [Example 60, 3-((1S,3R)-3-((5-Cyano-4-(1-(2-morpholinoethyl)-1H-pyrazol-4-yl)pyrimidin-2-yl)amino)cyclohexyl)-3H-imidazo[4,5-b]pyridine-6-carbonitrile] returned a half-maximal inhibitory concentration (IC50) of 50 to 500 nM.

These data come from patent publication US20250353842A1, “BICYCLIC AMINE CDK12 INHIBITORS” (Incyte Corporation, priority 2022, published 2025).
